The test system of the assay is GABA uptake by a crude synaptosomal fraction (P2) of the rat brain. The assay is described as follows: Inhibition of 3H-GABA uptake by crude synaptosomal fraction (P2) of rat brain. In kind it is biochemical. Particulars: rat brain P2 synaptosomal suspension, 37° C., 15 minutes preincubation, 1 μM 3H-GABA, incubation time 3 minutes; read-out: IC50 (concentration producing a 50% inhibition of GABA accumulation). As for the experimental part: The inhibition of GABA uptake produced by the compounds of this invention is measured by the ability of the active medicament to inhibit ^3 H-GABA uptake by a crude synaptosomal fraction (P2) of the rat brain. In this test system, aliquots of the P2 suspension are preincubated in a buffered physiological medium at 37° C. in the presence of test compound for 15 minutes. Uptake is initiated by the addition of ^3 H-GABA to a final concentration of 1 μM and terminated by filtration through a 0.45 um Millipore filter. Incubation time is 3 minutes. A compound producing a 50% or greater inhibition of GABA uptake at concentrations of 10 μM is considered to show biosignificant activity. The IC50 value is the concentration of a compound producing a 50% inhibition of GABA accumulation.

pIC50: −log10 of the molar value.

On to `O=C(O)CC1CCN(CCC=C(c2ccccc2)c2ccccc2)C1` (stereo not shown) [1-(4,4-diphenyl-3-butenyl)-3-pyrrolidineacetic acid], for which the pIC50 is 6.92.

The values are drawn from patent publication US4514414A, “N-Substituted pyrrolidineacetic acids and their esters” (Smithkline Beckman Corporation, priority 1982, dated 1985).
